Data reported in the CheMixHub ionic liquid set.
± gives the uncertainty stated by the source.

Assay: xn = mol fraction of the nth substance listed
Conditions: for electrical conductivity: 101 kPa

SMILES: CC(=O)[O-].CC[NH3+] + O
- electrical conductivity (298.15 K, x2 = 0.6519): 1.55 ± 0.031 S/m
- electrical conductivity (298.15 K, x2 = 0.8802): 2.91 ± 0.06 S/m
- electrical conductivity (298.15 K, x2 = 0.9004): 3.01 ± 0.06 S/m
- electrical conductivity (298.15 K, x2 = 0.91): 3.05 ± 0.06 S/m
- electrical conductivity (298.15 K, x2 = 0.93): 3.06 ± 0.06 S/m

SMILES: CCCCCCCCCCCCCCCC[n+]1ccccc1.O=C([O-])c1ccccc1O + O
- electrical conductivity (293.15 K, x1 = 7.2e-07): 0.00046 ± 2.8e-05 S/m
- electrical conductivity (293.15 K, x1 = 1.44e-06): 0.000708 ± 4.3e-05 S/m
- electrical conductivity (293.15 K, x1 = 1.98e-06): 0.000945 ± 5.7e-05 S/m
- electrical conductivity (293.15 K, x1 = 2.34e-06): 0.00114 ± 6.9e-05 S/m
- electrical conductivity (293.15 K, x1 = 2.88e-06): 0.00129 ± 7.8e-05 S/m
- electrical conductivity (293.15 K, x1 = 3.42e-06): 0.00142 ± 8.6e-05 S/m
- electrical conductivity (293.15 K, x1 = 3.96e-06): 0.00156 ± 9.4e-05 S/m
- electrical conductivity (293.15 K, x1 = 4.32e-06): 0.00167 ± 0.0001 S/m
- electrical conductivity (293.15 K, x1 = 4.87e-06): 0.00181 ± 0.00011 S/m
- electrical conductivity (293.15 K, x1 = 5.23e-06): 0.00187 ± 0.00011 S/m
- electrical conductivity (293.15 K, x1 = 5.59e-06): 0.00204 ± 0.00012 S/m
- electrical conductivity (293.15 K, x1 = 5.95e-06): 0.00212 ± 0.00013 S/m
- electrical conductivity (293.15 K, x1 = 6.31e-06): 0.00224 ± 0.00013 S/m
- electrical conductivity (293.15 K, x1 = 6.49e-06): 0.00231 ± 0.00014 S/m
- electrical conductivity (293.15 K, x1 = 6.85e-06): 0.00243 ± 0.00015 S/m
- electrical conductivity (293.15 K, x1 = 7.21e-06): 0.00251 ± 0.00015 S/m
- electrical conductivity (298.15 K, x1 = 7.2e-07): 0.000513 ± 3.1e-05 S/m
- electrical conductivity (298.15 K, x1 = 1.44e-06): 0.000794 ± 4.9e-05 S/m
- electrical conductivity (298.15 K, x1 = 1.98e-06): 0.00105 ± 6.3e-05 S/m
- electrical conductivity (298.15 K, x1 = 2.34e-06): 0.00128 ± 7.9e-05 S/m
- electrical conductivity (298.15 K, x1 = 2.88e-06): 0.00148 ± 9.1e-05 S/m
- electrical conductivity (298.15 K, x1 = 3.42e-06): 0.00163 ± 9.9e-05 S/m
- electrical conductivity (298.15 K, x1 = 3.96e-06): 0.00178 ± 0.00011 S/m
- electrical conductivity (298.15 K, x1 = 4.32e-06): 0.00191 ± 0.00012 S/m
- electrical conductivity (298.15 K, x1 = 4.87e-06): 0.00205 ± 0.00013 S/m
- electrical conductivity (298.15 K, x1 = 5.23e-06): 0.00217 ± 0.00013 S/m
- electrical conductivity (298.15 K, x1 = 5.59e-06): 0.00231 ± 0.00014 S/m
- electrical conductivity (298.15 K, x1 = 5.95e-06): 0.00242 ± 0.00015 S/m
- electrical conductivity (298.15 K, x1 = 6.31e-06): 0.00254 ± 0.00015 S/m
- electrical conductivity (298.15 K, x1 = 6.49e-06): 0.00263 ± 0.00016 S/m
- electrical conductivity (298.15 K, x1 = 6.85e-06): 0.00274 ± 0.00017 S/m
- electrical conductivity (298.15 K, x1 = 7.21e-06): 0.00283 ± 0.00017 S/m
- electrical conductivity (303.15 K, x1 = 7.2e-07): 0.000569 ± 3.4e-05 S/m
- electrical conductivity (303.15 K, x1 = 1.44e-06): 0.000883 ± 5.3e-05 S/m
- electrical conductivity (303.15 K, x1 = 1.98e-06): 0.00117 ± 7.4e-05 S/m
- electrical conductivity (303.15 K, x1 = 2.34e-06): 0.00144 ± 8.8e-05 S/m
- electrical conductivity (303.15 K, x1 = 2.88e-06): 0.00168 ± 0.0001 S/m
- electrical conductivity (303.15 K, x1 = 3.42e-06): 0.00186 ± 0.00011 S/m
- electrical conductivity (303.15 K, x1 = 3.96e-06): 0.00202 ± 0.00012 S/m
- electrical conductivity (303.15 K, x1 = 4.32e-06): 0.00217 ± 0.00013 S/m
- electrical conductivity (303.15 K, x1 = 4.69e-06): 0.00232 ± 0.00014 S/m
- electrical conductivity (303.15 K, x1 = 5.23e-06): 0.00247 ± 0.00015 S/m
- electrical conductivity (303.15 K, x1 = 5.59e-06): 0.00261 ± 0.00016 S/m
- electrical conductivity (303.15 K, x1 = 5.95e-06): 0.00273 ± 0.00016 S/m
- electrical conductivity (303.15 K, x1 = 6.31e-06): 0.00285 ± 0.00017 S/m
- electrical conductivity (303.15 K, x1 = 6.49e-06): 0.00296 ± 0.00018 S/m
- electrical conductivity (303.15 K, x1 = 6.85e-06): 0.00307 ± 0.00018 S/m
- electrical conductivity (303.15 K, x1 = 7.21e-06): 0.00319 ± 0.00019 S/m
- electrical conductivity (308.15 K, x1 = 7.2e-07): 0.000627 ± 3.8e-05 S/m
- electrical conductivity (308.15 K, x1 = 1.44e-06): 0.000973 ± 5.8e-05 S/m
- electrical conductivity (308.15 K, x1 = 1.98e-06): 0.00129 ± 8.3e-05 S/m
- electrical conductivity (308.15 K, x1 = 2.34e-06): 0.00159 ± 9.7e-05 S/m
- electrical conductivity (308.15 K, x1 = 2.88e-06): 0.00186 ± 0.00011 S/m
- electrical conductivity (308.15 K, x1 = 3.42e-06): 0.0021 ± 0.00013 S/m
- electrical conductivity (308.15 K, x1 = 3.96e-06): 0.0023 ± 0.00014 S/m
- electrical conductivity (308.15 K, x1 = 4.32e-06): 0.00247 ± 0.00015 S/m
- electrical conductivity (308.15 K, x1 = 4.69e-06): 0.00263 ± 0.00016 S/m
- electrical conductivity (308.15 K, x1 = 5.23e-06): 0.0028 ± 0.00017 S/m
- electrical conductivity (308.15 K, x1 = 5.59e-06): 0.00294 ± 0.00018 S/m
- electrical conductivity (308.15 K, x1 = 5.95e-06): 0.00309 ± 0.00019 S/m
- electrical conductivity (308.15 K, x1 = 6.31e-06): 0.00321 ± 0.00019 S/m
- electrical conductivity (308.15 K, x1 = 6.49e-06): 0.00333 ± 0.0002 S/m
- electrical conductivity (308.15 K, x1 = 6.85e-06): 0.00345 ± 0.00021 S/m
- electrical conductivity (308.15 K, x1 = 7.21e-06): 0.00358 ± 0.00021 S/m
- electrical conductivity (313.15 K, x1 = 7.2e-07): 0.000668 ± 4e-05 S/m
- electrical conductivity (313.15 K, x1 = 1.44e-06): 0.00122 ± 7.4e-05 S/m
- electrical conductivity (313.15 K, x1 = 2.34e-06): 0.00177 ± 0.00011 S/m
- electrical conductivity (313.15 K, x1 = 3.24e-06): 0.0023 ± 0.00014 S/m
- electrical conductivity (313.15 K, x1 = 3.96e-06): 0.00268 ± 0.00016 S/m
- electrical conductivity (313.15 K, x1 = 4.69e-06): 0.003 ± 0.00018 S/m
- electrical conductivity (313.15 K, x1 = 5.41e-06): 0.00324 ± 0.0002 S/m
- electrical conductivity (313.15 K, x1 = 5.95e-06): 0.00348 ± 0.00021 S/m
- electrical conductivity (313.15 K, x1 = 6.49e-06): 0.00375 ± 0.00023 S/m
- electrical conductivity (313.15 K, x1 = 7.03e-06): 0.00396 ± 0.00024 S/m
- electrical conductivity (313.15 K, x1 = 7.39e-06): 0.00412 ± 0.00025 S/m
- electrical conductivity (313.15 K, x1 = 7.75e-06): 0.00431 ± 0.00026 S/m
- electrical conductivity (313.15 K, x1 = 8.11e-06): 0.00447 ± 0.00027 S/m
- electrical conductivity (313.15 K, x1 = 8.65e-06): 0.00464 ± 0.00028 S/m

SMILES: CCCCCCCCCCCCCC[P+](CCCCCC)(CCCCCC)CCCCCC.O=S(=O)([N-]S(=O)(=O)C(F)(F)F)C(F)(F)F + O
- viscosity (328.15 K, 100 kPa, x2 = 0.088): 65.75 ± 0.61 mPa·s
